Laboratory results reported in US20070185095A1, “Fused heterocyclic compounds and their use as metabotropic glutamate receptor antagonists” (AstraZeneca AB, priority 2004, published 2007).

Biological target: T1, human mGluR5d (Homo sapiens, UniProt P41594)
T1 construct: expressed in transfected cells
Assay: FLIPR assay of [Ca2+]i mobilization in cells expressing human mGluR5d (Group I receptor antagonist activity)
Format: cell-based
Conditions: antagonist block of agonist challenge
Source text: The pharmacological properties of the compounds of the invention can be analyzed using standard assays for functional activity. Examples of glutamate receptor assays are well known in the art as described in for example Aramori et al., Neuron 8:757 (1992), Tanabe et al., Neuron 8:169 (1992), Miller et al., J. Neuroscience 15: 6103 (1995), Balazs, et al., J. Neurochemistry 69:151 (1997). The methodology described in these publications is incorporated herein by reference. Conveniently, the compounds of the invention can be studied by means of an assay that measures the mobilization of intracellular calcium, [Ca^2+]i in cells expressing mGluR5. […]
FLIPR experiments were done using a laser setting of 0.800 W and a 0.4 second CCD camera shutter speed. […] After each addition of the compound, the fluorescence signal was sampled 50 times at 1 second intervals followed by 3 samples at 5 second intervals. Responses were measured as the peak height of the response within the sample period. […]
For FLIPR analysis, cells expressing human mGluR5d as described in WO97/05252 were seeded on collagen coated clear bottom 96-well plates with black sides and analysis of [Ca^2+]i mobilization was performed 24 h following seeding. […] After each addition the fluorescence signal was sampled 50 times at 1 second intervals followed by 3 samples at 5 second intervals. […]

T1 sequence (P41594 21-942 isoform P41594-3 limits assumed): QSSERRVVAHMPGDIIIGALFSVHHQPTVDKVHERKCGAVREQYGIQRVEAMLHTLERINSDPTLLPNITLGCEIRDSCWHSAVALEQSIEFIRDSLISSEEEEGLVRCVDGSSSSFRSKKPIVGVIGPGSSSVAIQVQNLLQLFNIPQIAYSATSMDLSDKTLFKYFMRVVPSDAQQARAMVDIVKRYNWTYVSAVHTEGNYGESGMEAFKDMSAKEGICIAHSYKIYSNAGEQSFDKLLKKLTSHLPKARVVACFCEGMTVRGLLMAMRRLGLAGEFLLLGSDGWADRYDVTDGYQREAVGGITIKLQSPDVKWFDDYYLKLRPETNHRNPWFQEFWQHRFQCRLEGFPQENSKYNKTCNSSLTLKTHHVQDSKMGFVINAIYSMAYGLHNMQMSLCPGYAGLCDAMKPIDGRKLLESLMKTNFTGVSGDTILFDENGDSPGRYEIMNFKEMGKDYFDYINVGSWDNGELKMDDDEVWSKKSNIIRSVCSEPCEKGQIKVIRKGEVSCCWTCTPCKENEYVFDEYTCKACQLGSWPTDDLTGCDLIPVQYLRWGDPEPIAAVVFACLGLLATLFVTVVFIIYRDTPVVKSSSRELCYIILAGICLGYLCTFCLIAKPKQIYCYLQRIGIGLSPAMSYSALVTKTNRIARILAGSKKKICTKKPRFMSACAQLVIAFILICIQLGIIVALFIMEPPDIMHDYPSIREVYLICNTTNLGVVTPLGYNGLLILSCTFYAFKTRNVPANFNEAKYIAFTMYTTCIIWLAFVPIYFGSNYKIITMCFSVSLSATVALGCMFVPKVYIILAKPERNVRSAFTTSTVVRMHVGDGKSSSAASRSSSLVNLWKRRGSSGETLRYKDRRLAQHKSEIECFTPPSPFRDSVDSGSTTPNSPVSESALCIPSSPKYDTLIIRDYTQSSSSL

IC50	SMILES
49 nM	Clc1cccc(-c2nc(CC3CCn4c(-c5ccncc5)nnc43)no2)c1 (centres unmarked) [7-{[5-(3-chlorophenyl)-1,2,4-oxadiazol-3-yl]methyl}-3-pyridin-4-yl-6,7-dihydro-5H-pyrrolo[2,1-c][1,2,4]triazole]
81 nM	CC(c1noc(-c2cccc(Cl)c2)n1)N1CCCCn2c(-c3ccncc3)nnc21 (centres unmarked) [9-{1-[5-(3-chlorophenyl)-1,2,4-oxadiazol-3-yl]ethyl}-3-pyridin-4-yl-6,7,8,9-tetrahydro-5H-[1,2,4]triazolo[4,3-a][1,3]diazepine]
